Laboratory results taken from US8354381B2, “Peptide compositions for oral care systems” (E I du Pont de Nemours and Company, priority 2009, dated 2013).
Where no end group is shown, it is not given here. The star is where a group is joined. Biotin = O=C1N[C@H]2[C@H](CS[C@H]2CCCCC(=O)*)N1

What was measured:
[1] = system: pellicle-coated HAP disks; experiment: Phage ELISA on pellicle-coated HAP disks; type: binding, human; conditions: over 10^10 pfu phage, A450
Source text: A total of 20 selected phage candidates (Example 1) were used in a phage ELISA experiment. Purified phage lysates were used for binding to pellicle-coated HAP disks using an anti-M13 phage antibody conjugated to horseradish-peroxidase, followed by the addition of chromogenic agent TMB (3,3′,5,5′-tetramethylbenzidine), obtained from Pierce Biotechnology (Item #34021; Rockford, Ill.). The plates were read at A450 nm.
For each phage candidate to be tested, the pellicle-coated HAP disks (3 mm diameter) was incubated for 1 h at room temperature with 200 μL of blocking buffer, consisting of 2% non-fat dry milk (Schleicher & Schuell, Inc.) in TBS. […] The tube was rinsed 6 times with wash buffer consisting of TBST-0.05%. The wells were filled with 200 μL of TBST-0.5% containing 1 mg/mL BSA (bovine serum albumin) and then 10 μL (over 10^10 pfu) of purified phage stock was added. The samples were incubated at room temperature for 60 min with slow shaking. The non-binding phage were removed by washing 6 times with TBST-0.5%. […] The conjugate solution was removed and was washed 6 times with TBST-0.5%.

[2] = system: pellicle coated bovine enamel; experiment: Phage ELISA on pellicle coated bovine enamel (Example 6); type: binding, human; conditions: 10^11 pfu phage, 30 min in vivo pellicle on bovine enamel, normalized to an internal control
Procedure: A total of 29 selected phage candidates from Table 5 were used in phage ELISA Experiment to determine binding affinity and coverage of each phage on pellicle substrates. Purified phage lysates were used for binding to pellicle coated bovine enamel using an anti-M13 phage antibody conjugated to horseradish-peroxidase, followed by the addition of chromogenic agent TMB. The plates were read at A450 nm.
The wells were filled with 1 mL of 10^11 pfu purified phage stock which was prepared by diluting in blocking buffer. […] The non-binding phage was removed by washing 5 times with PBST. […] The conjugate solution was removed and was washed 3 times with PBST.

[3] = system: pellicle coated enamel substrates; conditions: 20 μM biotinylated peptide, streptavidin-HRP, normalized to DenP03, three replicates
Procedure: A total of 20 synthetic peptides were manufactured using sequences obtained from Table 6. Peptides were obtained from SynBioSci Corp. (Livermore, Calif.) and included an additional sequence (SSRP; SEQ ID NO: 118) at the N-terminus and biotin labeled lysine at the C-terminus.
Enamel substrates were cut into approximately 7 mm squares and mounted on wax mounting for incubation in the mouth for 30 min to form a pellicle coated surface. The pellicle coated enamel substrates were removed from the wax backing and placed in well plates with the pellicle surface exposed as in Example 5. Each pellicle coated substrate was incubated for 1 h at room temperature (˜22° C.) with 1 mL of blocking buffer, consisting of 1 mg/mL BSA in PBST (Pierce BUPH™ #28372 with 0.1% TWEEN® 20). The blocking buffer was removed by aspirating the liquid out of each well. The tube was rinsed 2 times with wash buffer consisting of PBST. The wells were filled with 500 μL of 20 μM peptide solution which was prepared by diluting in blocking buffer. The samples were incubated for 30 min with slow shaking at 37° C. The non-binding peptide was removed by washing 6 times with PBST. Then, 500 μL of horseradish peroxidase/streptavidin conjugate (Pierce #22127), diluted 1:2000 in PBST, was added and incubated for 1 h at room temperature (˜22° C.). The conjugate solution was removed and was washed 4 times with PBST.
Each enamel substrate was removed from the well and washed again in a 15-mL test tube with 10 mL of PBST. Each enamel substrate was then mounted in a clean well plate with only the enamel surface exposed. A 1:1 solution of TMB substrate and H2O2 (200 μL) was added to each well and the color was allowed to develop for between 10 to 20 min, typically for 15 min, at room temperature (˜22° C.). Then, 100 μL of solution from each well was transferred to a 96 well reading plate containing stop solution (100 μL of 2 M H2SO4) in each well. The A450 was measured using a microplate spectrophotometer (Molecular Devices, Sunnyvale, Calif.). […] Each sequence was tested with three replicate enamel coated pellicle substrates.

AHPESLGIKYALDGNSDPHA (Synthetic oral-surface binding peptide) [Pell 1]
O.D.450 [1]: 0.739

ANELSTYAQTNPGSG (Synthetic oral-surface binding peptide) [DenP25]
O.D.450 (normalized) [2]: 0.909

APPTYQTASYPHNLPSKRKM (Synthetic oral-surface binding peptide) [DenP28]
O.D.450 (normalized) [2]: 1.203

ASVSNYPPIHHLATSNTTVN (Synthetic oral-surface binding peptide) [Pell 2]
O.D.450 [1]: 0.75

AVVPADLNDHANHLS (Synthetic oral-surface binding peptide) [DenP10]
O.D.450 (normalized) [2]: 1.619

DECMEPLNAAHCWR (Synthetic oral-surface binding peptide) [Pell 3]
O.D.450 [1]: 0.49

DECMHGSDVEFCTS (Synthetic oral-surface binding peptide) [Pell 4]
O.D.450 [1]: 0.664

DHNNRQHAVEVRENKTHTAR (Synthetic oral-surface binding peptide) [DenP21]
O.D.450 (normalized) [2]: 0.728

DLCSMQMMNTGCHY (Synthetic oral-surface binding peptide) [Pell 5]
O.D.450 [1]: 0.83

DLCSSPSTWGSCIR (Synthetic oral-surface binding peptide) [Pell 6]
O.D.450 [1]: 0.735

DLGTFPNRTLKMAAH (Synthetic oral-surface binding peptide) [DenP11]
O.D.450 (normalized) [2]: 1.663

DPNESNYENATTVSQPTRHL (Synthetic oral-surface binding peptide) [Pell 7]
O.D.450 [1]: 0.831

DTIHPNKMKSPSSPL (Synthetic oral-surface binding peptide) [DenP26]
O.D.450 (normalized) [2]: 1.039

EFPYYNDNPPNPERHTLR (Synthetic oral-surface binding peptide) [DenP7]
O.D.450 (normalized) [2]: 1.500

ELDHDSRHYMNGLQRKVT (Synthetic oral-surface binding peptide) [DenP15]
O.D.450 (normalized) [2]: 1.112

EPTHPTMRAQMHQSLRSSSP (Synthetic oral-surface binding peptide) [Pell 8]
O.D.450 [1]: 0.712

FDGIGLGTATRHQNR (Synthetic oral-surface binding peptide) [DenP12]
O.D.450 (normalized) [2]: 2.079

GMPTRYYHNTPPHLTPKF (Synthetic oral-surface binding peptide) [DenP8]
O.D.450 (normalized) [2]: 1.182

GNTDTTPPNAVMEPTVQHKW (Synthetic oral-surface binding peptide) [Pell 9]
O.D.450 [1]: 0.755

GPQHVLMQDTHQGYAFDN (Synthetic oral-surface binding peptide) [DenP16]
O.D.450 (normalized) [2]: 2.190

HDPNHLTHQARTIYRNANHT (Synthetic oral-surface binding peptide) [DenP23]
O.D.450 (normalized) [2]: 1.236

HKNAIQPVNDATTLDTTM (Synthetic oral-surface binding peptide) [DenP9]
O.D.450 (normalized) [2]: 1.364

HKNENIMQYNVNDRWHITPA (Synthetic oral-surface binding peptide) [DenP32]
O.D.450 (normalized) [2]: 1.441

IPWWNIRAPLNAGGG [Control, reference compound]
O.D.450 (normalized) [2]: 1.000

IYPNESMSTSNVRGPYHP (Synthetic oral-surface binding peptide) [DenP22]
O.D.450 (normalized) [2]: 1.420

KAPIANMLQPHSYQYSVA (Synthetic oral-surface binding peptide) [DenP18]
O.D.450 (normalized) [2]: 1.143

NGNNHTDIPNRSSYTGGSFA (Synthetic oral-surface binding peptide) [DenP1]
O.D.450 (normalized) [2]: 1.002

NGPDMVQSVGKHKNS (Synthetic oral-surface binding peptide) [Pell 10]
O.D.450 [1]: 0.729

NGPEVRQIPANFEKL (Synthetic oral-surface binding peptide) [Pell 11]
O.D.450 [1]: 0.607

NNTSADNPPETDSKHHLSMS (Synthetic oral-surface binding peptide) [Pell 12]
O.D.450 [1]: 0.521

NNTWPEGAGHTMPSTNIRQA (Synthetic oral-surface binding peptide) [Pell 13]
O.D.450 [1]: 0.598

NPTATPHMKDPMHSNAHSSA (Synthetic oral-surface binding peptide) [Pell 14]
O.D.450 [1]: 0.7

NPTDHIPANSTNSRVSKGNT (Synthetic oral-surface binding peptide) [Pell 15]
O.D.450 [1]: 0.567

NPTDSTHMMHARNHE (Synthetic oral-surface binding peptide) [Pell 16]
O.D.450 [1]: 0.578

QAAQVHMMQHSRPTT (Synthetic oral-surface binding peptide) [DenP13]
O.D.450 (normalized) [2]: 0.845

QHCITERLHPPCTK (Synthetic oral-surface binding peptide) [Pell 17]
O.D.450 [1]: 0.614

QVPDYLSPTHQKKAFLEIPT (Synthetic oral-surface binding peptide) [DenP29]
O.D.450 (normalized) [2]: 0.976

SEARARTFNDHTTPMPII (Synthetic oral-surface binding peptide) [DenP14]
O.D.450 (normalized) [2]: 2.498

SNATMYNIQSHSHHQ (Synthetic oral-surface binding peptide) [DenP24]
O.D.450 (normalized) [2]: 0.979

SSRPAPPTYQTASYPHNLPSKRKMK(Biotin) [DenP28-A]
O.D.450 (normalized) [3]: 0.811

SSRPDLGTFPNRTLKMAAHK(Biotin) [DenP11-A]
O.D.450 (normalized) [3]: 0.454

SSRPEFPYYNDNPPNPERHTLRK(Biotin) [DenP7-A]
O.D.450 (normalized) [3]: 0.356

SSRPELDHDSRHYMNGLQRKVTK(Biotin) [DenP15-A]
O.D.450 (normalized) [3]: 0.460

SSRPFDGIGLGTATRHQNRK(Biotin) [DenP12-A]
O.D.450 (normalized) [3]: 0.475

SSRPGPQHVLMQDTHQGYAFDNK(Biotin) [DenP16-A]
O.D.450 (normalized) [3]: 0.309

SSRPHDPNHLTHQARTIYRNANHTK(Biotin) [DenP23-A]
O.D.450 (normalized) [3]: 0.850

SSRPIYPNESMSTSNVRGPYHPK(Biotin) [DenP22-A]
O.D.450 (normalized) [3]: 0.354

SSRPNGNNHTDIPNRSSYTGGSFAK(Biotin) [DenP1-A]
O.D.450 (normalized) [3]: 0.154

SSRPQAAQVHMMQHSRPTTK(Biotin) [DenP13-A]
O.D.450 (normalized) [3]: 0.699

TMTNHVYNSYTEKHSSTHRS (Synthetic oral-surface binding peptide) [DenP2]
O.D.450 (normalized) [2]: 1.951

TNDLHANPFTGTYIAPDPTS (Synthetic oral-surface binding peptide) [DenP30]
O.D.450 (normalized) [2]: 1.082

TPCAPASFNPHCSR (Synthetic oral-surface binding peptide) [Pell 18]
O.D.450 [1]: 0.416

TPCATYPHFSGCRA (Synthetic oral-surface binding peptide) [Pell 19]
O.D.450 [1]: 0.731

TTGSSSQADTSASMSIVPAH (Synthetic oral-surface binding peptide) [DenP17]
O.D.450 (normalized) [2]: 0.971

TYQGVPSWPAVIDDAIRR (Synthetic oral-surface binding peptide) [DenP19]
O.D.450 (normalized) [2]: 1.052

VEPATKNMREARSSTQMRRI (Synthetic oral-surface binding peptide) [DenP4]
O.D.450 (normalized) [2]: 1.421

VNPNWVETQALHQPPGNT (Synthetic oral-surface binding peptide) [DenP20]
O.D.450 (normalized) [2]: 1.298

WCTDFCTRSTPTSTSRSTTS (Synthetic oral-surface binding peptide) [Pell 20]
O.D.450 [1]: 0.715

YLLPKDQTTAPQVTPIVQHK (Synthetic oral-surface binding peptide) [DenP5]
O.D.450 (normalized) [2]: 1.087
